In patent US6376243B1, “DNA encoding a human serotonin receptor (5-HT4B) and uses thereof” (Synaptic Pharmaceutical Corporation, priority 1992, dated 2002):
Read-outs that look alike come from different tables or passages of the source.

What was measured:
[1] = molecular target: T1, clone hp78a (human 5-HT4B receptor) (Homo sapiens, UniProt P34969); experiment: Competition of [3H]5-HT binding to membranes of cells transiently expressing clone hp78a
human 5-HT4B receptor = human 5-HT4B receptor (Homo sapiens, UniProt P34969); experiment: cAMP formation in intact Cos-7 cells transiently expressing the receptor; details: for inhibition at 10 µM: COS-7, read-out: % INHIBITION OF 5-HT RESPONSE
[2] = molecular target: T1, clone hp78a (human 5-HT4B receptor); experiment: [3H]5-HT saturation binding to membranes of transiently transfected Cos-7 cells; details: 100 μM Gpp(NH)p; membranes from transient transfectants
[3] = read-out: Apparent dissociation constant Ki
[4] = 5 nM [3H]5-HT, 30 min at 37° C., mean ± S.E.M.
[5] = Apparent dissociation constant Ki
[6] = Apparent dissociation constant Ki, 5 nM [3H]5-HT, seven concentrations of competitor, 30 min at 37° C., Cheng-Prusoff, mean ± S.E.M. from 2-3 determinations
[7] = competitor 100 nM, 5 nM [3H]5-HT, 30 min at 37° C.

T1 sequence (P34969 1-445 isoform P34969-2): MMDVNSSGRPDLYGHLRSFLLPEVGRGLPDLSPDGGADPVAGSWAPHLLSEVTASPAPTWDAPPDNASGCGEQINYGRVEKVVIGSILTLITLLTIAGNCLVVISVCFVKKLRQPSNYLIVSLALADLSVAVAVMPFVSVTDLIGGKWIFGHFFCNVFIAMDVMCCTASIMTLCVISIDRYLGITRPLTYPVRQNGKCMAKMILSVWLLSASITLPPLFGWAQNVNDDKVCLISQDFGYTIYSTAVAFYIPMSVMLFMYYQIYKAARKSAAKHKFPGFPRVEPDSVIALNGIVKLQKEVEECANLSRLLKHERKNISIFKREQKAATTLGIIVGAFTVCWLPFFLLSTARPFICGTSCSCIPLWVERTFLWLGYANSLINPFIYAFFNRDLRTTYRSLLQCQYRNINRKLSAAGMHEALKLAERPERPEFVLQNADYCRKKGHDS
Sequence of human 5-HT4B receptor (P34969 1-445 isoform P34969-2): as above

SMILES: CC(C)NCC(O)COc1cccc2[nH]ccc12 (racemic) [Pindolol]
- PERCENT INHIBITION of specific [3H]5-HT binding [1]: 11%

SMILES: c1ccc2c(N3CCNCC3)cccc2c1 [1-NP, 1-naphthylpiperazine]
- PERCENT INHIBITION of specific [3H]5-HT binding [1]: 44%

SMILES: CCN(CC)C(=O)[C@@H]1C=C2c3cccc4[nH]c(Br)c(c34)C[C@H]2N(C)C1 [2-Br-LSD]
- FOLD cAMP STIMULATION relative to basal levels (human 5-HT4B receptor; drug 1 μM, intact Cos-7 cells): 0 fold
- Hill coefficient nH [1]: 1.02 ± 0.16
- Ki [1, 3]: 39 ± 7 nM

SMILES: Cc1[nH]c2ccc(O)cc2c1CCN [2-Me-5-HT]
- PERCENT INHIBITION of specific [3H]5-HT binding [1]: 7%

SMILES: NCCc1c[nH]c2ccc(O)cc12 [5-HT, 5-hydroxytryptamine]
- inhibition of basal or FSK-stimulated cAMP release (human 5-HT4B receptor; 5-HT 1 μM, transfected Cos-7 cells): not observed
- increase in cAMP release over basal levels (human 5-HT4B receptor; discussion statement): 20 fold
- Ki in binding assays higher affinity than EC50 in functional assays (human 5-HT4B receptor; ratio of EC50 to Ki): approximately 100 fold
- Hill coefficient nH [1, 4]: 1.07 ± 0.07

SMILES: COc1ccc2[nH]cc(CCN)c2c1 [5-MeOT]
- agonist activity on cAMP (human 5-HT4B receptor): potent agonists
- Hill coefficient nH [1]: 1.00 ± 0.03

SMILES: CC(C)C[C@H]1C(=O)N2CCC[C@H]2[C@]2(O)O[C@](NC(=O)[C@@H]3C=C4c5cccc6[nH]c(Br)c(c56)C[C@H]4N(C)C3)(C(C)C)C(=O)N12 [Bromocriptine]
- Hill coefficient nH [1]: 1.15
- Ki [1, 5]: 135 nM

SMILES: CN(C)CCc1c[nH]c2ccc(O)cc12 [Bufotenin]
- PERCENT INHIBITION of specific [3H]5-HT binding [1]: 40%

SMILES: CN1CCC(=C2c3ccccc3C=Cc3ccccc32)CC1 [Cyproheptadine]
- PERCENT INHIBITION of specific [3H]5-HT binding ([1]; competitor 30 nM, 5 nM [3H]5-HT, 30 min at 37° C.): 36%

SMILES: CCCN(CCC)CCc1c[nH]c2ccc(C(N)=O)cc12 [DP-5-CT]
- Hill coefficient nH [1]: 0.78
- Ki [1, 3]: 62 nM

SMILES: CCCN(CCC)C1CCc2cccc(O)c2C1 (centres unmarked) [DPAT]
- Hill coefficient nH [1, 4]: 0.76

SMILES: CN1C[C@H](C(=O)N[C@]2(C)O[C@@]3(O)[C@@H]4CCCN4C(=O)[C@H](Cc4ccccc4)N3C2=O)C[C@@H]2c3cccc4[nH]cc(c34)C[C@H]21 [Dihydroergotamine]
- Hill coefficient nH [1]: 1.36 ± 0.08
- Ki [1, 5]: 6 ± 0.2 nM
- Ki [1, 3]: 5 to 10 nM

SMILES: CN1C[C@H](C(=O)N[C@]2(C)O[C@@]3(O)[C@@H]4CCCN4C(=O)[C@H](Cc4ccccc4)N3C2=O)C=C2c3cccc4[nH]cc(c34)C[C@H]21 [Ergotamine]
- PERCENT INHIBITION of specific [3H]5-HT binding [1]: 79%

SMILES: Nc1nc2c(ncn2[C@@H]2O[C@H](COP(=O)(O)OP(=O)(O)NP(=O)(O)O)[C@@H](O)[C@H]2O)c(=O)[nH]1 [Gpp(NH)p, 5′-guanylylimidodiphosphate]
- reduction of high affinity [3H]5-HT binding [2]: 75%

SMILES: CN1[C@@H]2CC[C@H]1C[C@@H](OC(=O)c1c[nH]c3ccccc13)C2 [ICS 203930]
- inhibitory effect on the 5-HT cAMP response (human 5-HT4B receptor; 100 μM): weak inhibitory effect
- activity at the 5-HT4B receptor (human 5-HT4B receptor; discussion statement): either poorly active or inactive
- Ki ([1]; read-out: Apparent dissociation constant Ki, 5 nM [3H]5-HT, seven concentrations of competitor, 30 min at 37° C., Cheng-Prusoff, mean ± S.E.M. from 2-3 determinations): > 500 nM

SMILES: O=C(c1ccc(F)cc1)C1CCN(CCn2c(=O)[nH]c3ccccc3c2=O)CC1 [Ketanserin]
- Ki [1, 6]: > 100 nM
- PERCENT INHIBITION of specific [3H]5-HT binding [1, 7]: 17%

SMILES: CN1C[C@@H](NS(=O)(=O)N(C)C)C[C@@H]2c3cccc4c3c(cn4C)C[C@H]21 [Mesulergine]
- Hill coefficient nH [1, 4]: 1.09
- Ki [1, 6]: 9.6 nM

SMILES: CN1C[C@H](CNC(=O)OCc2ccccc2)C[C@@H]2c3cccc4c3c(cn4C)C[C@H]21 [Metergoline]
- antagonism of the 5-HT cAMP response (human 5-HT4B receptor; 10 μM): almost completely
- inhibition at 10 µM (human 5-HT4B receptor): 96 ± 1%
- Hill coefficient nH [1, 4]: 1.23
- Ki [1, 6]: 5.5 nM

SMILES: CC[C@@H](CO)NC(=O)[C@@H]1C=C2c3cccc4c3c(cn4C)C[C@H]2N(C)C1 [Methysergide]
- antagonism of the 5-HT cAMP response (human 5-HT4B receptor): almost completely
- inhibition at 10 µM (human 5-HT4B receptor): 82 ± 1.5%
- PERCENT INHIBITION of specific [3H]5-HT binding [1]: 51%

SMILES: Cc1nc2sccn2c(=O)c1CCN1CCC(=C(c2ccc(F)cc2)c2ccc(F)cc2)CC1 [Ritanserin]
- PERCENT INHIBITION of specific [3H]5-HT binding ([1]; competitor 10 nM, 5 nM [3H]5-HT, 30 min at 37° C.): 32%

SMILES: O=C(CCCN1CCC2(CC1)C(=O)NCN2c1ccccc1)c1ccc(F)cc1 [Spiperone]
- PERCENT INHIBITION of specific [3H]5-HT binding [1, 7]: 64%

SMILES: CNS(=O)(=O)Cc1ccc2[nH]cc(CCN(C)C)c2c1 [Sumatriptan]
- Hill coefficient nH [1, 4]: 0.88 ± 0.03
- Ki [1, 6]: 764 ± 29 nM

SMILES: NCCc1c[nH]c2ccccc12 [Tryptamine]
- PERCENT INHIBITION of specific [3H]5-HT binding [1]: 32%

SMILES: COc1cc(N)c(Cl)cc1C(=O)NC1CN2CCC1CC2 (centres unmarked) [Zacopride]
- activity at the 5-HT4B receptor (human 5-HT4B receptor; discussion statement): either poorly active or inactive
- Ki [1, 6]: > 500 nM
- PERCENT INHIBITION of specific [3H]5-HT binding [1, 7]: 0%

SMILES: COc1cc(N)c(Cl)cc1C(=O)NC1CCN(CCCOc2ccc(F)cc2)CC1OC (centres unmarked) [cisapride]
- activity at the 5-HT4B receptor (human 5-HT4B receptor; discussion statement): either poorly active or inactive
